Data taken from paper PMC6114103, “17-DMAG inhibits the multiplication of several Babesia species and Theileria equi on in vitro cultures, and Babesia microti in mice” (International Journal for Parasitology: Drugs and Drug …, 2018).

Experiments:
[1] = test system: B. bovis (Texas strain); assay: in vitro multiplication inhibition assay (SYBR Green I fluorescence, 96 h), single drugs and two-drug combinations; assay type: cell-based, Babesia bovis; conditions: for IC50: Babesia bovis, in Bos taurus, B. bovis, 96 h, triplicate, mean ± SD, read-out: IC50 on in vitro culture of parasites; for Selectivity index MDBK: ratio IC50 MDBK to IC50 B. bovis; for Selectivity index NIH/3T3: ratio IC50 NIH/3T3 to IC50 B. bovis
Experimental: (§1) Babesia parasite cultures were maintained using a microaerophilic stationary-phase culture system ([Levy and Ristic, 1980]; [Avarzed et al., 1997]; [Igarashi et al., 1998]). Briefly, bovine Babesia parasites were grown in bovine red blood cells (RBC) in the specific complete medium for each species. The medium for B. bovis (Texas strain) contained GIT medium supplemented with 10% bovine serum, while the medium for B. bigemina (Argentina strain) and B. divergens (Germany strain) was Medium 199 and RPMI 1640 medium, respectively, supplemented with 40% bovine serum ([Rizk et al., 2016]). B. caballi (USDA strain) was grown using equine RBC in GIT medium supplemented with 10% equine serum. T. equi (USDA strain) was grown in equine RBC in M199 medium supplemented with 40% equine serum and hypoxanthine (MP Biomedicals, USA) at a final concentration of 13.6 μg/ml. All of the media included 60 U/ml penicillin G, 60 μg/ml streptomycin, and 0.15 μg/ml amphotericin B (Sigma-Aldrich, USA). The cultures were incubated at 37 °C in a humidified chamber with an atmosphere of 5% CO2, 5% O2, and 90% N2.
(§2) The assays were conducted in accordance with the protocol described previously with modification ([Guswanto et al., 2014]). Briefly, the cultures of B. bovis, B. bigemina, B. divergens, B. caballi, and T. equi with a parasitemia of 8%, 3%, 10%, 4%, and 9%, respectively, were harvested and adjusted to 1% parasitemia with fresh RBC before the inhibition assay. The 60 inner wells of a 96-well plate were used in the assay, while the peripheral wells were filled with sterile distillate water to reduce evaporation during incubation. To each well in triplicate, 2.5 μl of infected RBC (5 μl for B. divergens, B. caballi, and T. equi) was added and mixed with a culture medium containing the drug to a total volume of 100 μl. The stock solution of 17-DMAG, DA, and AV was dissolved in a culture medium at various concentrations using two-fold dilution. A culture medium containing DMSO at a final concentration of 0.2% was added to the well with infected RBC as a positive control and to the well with uninfected RBC as a negative control. Furthermore, a drug combination assay was conducted in parallel with the single drug assay at the constant ratio in accordance with the Chou–Talalay method ([Chou, 2006]). In the same plate with a single drug inhibition assay, a two-drug combination (DA+17-DMAG, DA + AV, and 17-DMAG + AV) at concentrations of 0.25 x IC50, 0.5 x IC50, IC50, 2 x IC50, and 4 x IC50 was added to the well containing infected RBC in triplicate. The plate was incubated in a humidified incubator with 5% CO2, 5% O2, and 90% N2. After 96 h, 100 μl of a lysis buffer containing SYBR Green I was added to each well. The plate was wrapped with aluminum foil to avoid direct light exposure and incubated at room temperature. After incubation for 6 h, fluorescence values were measured using a fluorescence spectrophotometer (Fluoroskan Ascent, Thermo Fisher Scientific, USA) with the excitation and emission wavelength at 485 nm and 518 nm, respectively. The fluorescence data were subtracted from the negative control and used to calculate the IC50.
(§3) The IC50 of 17-DMAG, DA, and AV was calculated from the percentage of inhibition on the in vitro multiplication of all tested species using non-linear regression (curve fit), available in GraphPad Prism (GraphPad Software Inc., USA). Combination index (CI) values for the drug combination were calculated using CompuSyn software ([Chou, 2006]). Since the chemotherapy effect is preferable at the highest inhibition, the degree of synergism was determined as the weighted average of CI values using a formula ((1 x IC50) + (2 x IC75) + (3 x IC90) + (4 x IC95))/10 ([Chou, 2006]). The differences among groups regarding the parasitemia, hematology profiles, and body weight in the B. microti–infected mouse model were analyzed using Student's t-test, available in GraphPad Prism software.

[2] = test system: B. bigemina (Argentina strain); assay: as above; assay type: cell-based, Babesia bigemina; conditions: for IC50: Babesia bigemina, B. bigemina, 96 h, triplicate, mean ± SD, read-out: IC50 on in vitro culture of parasites; for Selectivity index MDBK: ratio IC50 MDBK to IC50 B. bigemina; for Selectivity index NIH/3T3: ratio IC50 NIH/3T3 to IC50 B. bigemina
Experimental: as §1, §2, §3

[3] = test system: B. caballi (USDA strain); assay: as above; assay type: cell-based, Babesia caballi; conditions: for IC50: Babesia caballi, B. caballi, 96 h, triplicate, mean ± SD, read-out: IC50 on in vitro culture of parasites; for Selectivity index MDBK: ratio IC50 MDBK to IC50 B. caballi; for Selectivity index NIH/3T3: ratio IC50 NIH/3T3 to IC50 B. caballi
Experimental: as §1, §2, §3

[4] = test system: MDBK cells; assay: cytotoxicity (drug-exposure viability) assay, CCK-8; assay type: cell-based, bovine; conditions: for IC50: Bos taurus, MDBK, 24 h exposure, CCK-8, read-out: IC50 on cell line MDBK
Experimental: Each medium was supplemented with 10% fetal bovine serum, 0.5% penicillin/streptomycin (Gibco, Life Technologies, USA), and an additional 1% glutamine. The medium was changed every 3–4 days and incubated until approximately 80% confluent. The cells were free from mycoplasma contamination after being checked by staining with DAPI (Sigma-Aldrich, USA). The detachment of cells from the culture flask was done using TrypLE™ Express (Gibco, Life Technologies, USA) after washing two times with Dulbecco's phosphate-buffered saline (DPBS). Subsequently, the counting of viable cells was carried out using a Neubauer improved C-Chip (NanoEntek Inc., Korea) after staining with 0.4% trypan blue solution. The drug-exposure viability assay was performed in accordance with the recommendation of the Cell Counting Kit-8 (CCK-8, Dojindo, Japan). Briefly, the assay was carried out using a 96-well plate at 37 °C in a humidified incubator with 5% CO2. One hundred microliters of cells at a density of 5 × 10^4 cells/ml was seeded per well and allowed to attach to the plate for 24 h. […] The exposure of drugs was carried out for 24 h, followed by the addition of 10 μl of CCK-8. The plate was further incubated for 3 h, and the absorbance was measured at 450 nm using a microplate reader.

[5] = test system: T. equi (USDA strain); assay: in vitro multiplication inhibition assay (SYBR Green I fluorescence, 96 h), single drugs and two-drug combinations; assay type: cell-based, Theileria equi; conditions: for IC50: Theileria equi, T. equi, 96 h, triplicate, mean ± SD, read-out: IC50 on in vitro culture of parasites; for Selectivity index MDBK: ratio IC50 MDBK to IC50 T. equi; for Selectivity index NIH/3T3: ratio IC50 NIH/3T3 to IC50 T. equi
Experimental: as §1, §2, §3

[6] = test system: B. divergens (Germany strain); assay: as above; assay type: cell-based, Babesia divergens; conditions: for IC50: Babesia divergens, B. divergens, 96 h, triplicate, mean ± SD, read-out: IC50 on in vitro culture of parasites; for Selectivity index MDBK: ratio IC50 MDBK to IC50 B. divergens; for Selectivity index NIH/3T3: ratio IC50 NIH/3T3 to IC50 B. divergens
Experimental: as §1, §2, §3

Row | Structure (SMILES) | IC50 [1] [nM] | Selectivity index MDBK [1] | Selectivity index NIH/3T3 [1] | IC50 [2] [nM] | Selectivity index MDBK [2] | Selectivity index NIH/3T3 [2] | IC50 [3] [nM] | Selectivity index MDBK [3] | Selectivity index NIH/3T3 [3] | IC50 [4] [µM] | IC50 [5] [nM] | Selectivity index MDBK [5] | Selectivity index NIH/3T3 [5] | IC50 [6] [nM] | Selectivity index MDBK [6] | Selectivity index NIH/3T3 [6] | inhibition on MDBK cell viability ([4]; at a concentration of 40 μM, separate assay)
1 | CO[C@H]1/C=C\C=C(/C)C(=O)NC2=CC(=O)C(NCCN(C)C)=C(C[C@@H](C)C[C@H](OC)[C@H](O)[C@@H](C)/C=C(\C)[C@@H]1OC(N)=O)C2=O [17-DMAG, 17-dimethylaminoethylamino-17-demethoxygeldanamycin] | 77.6 ± 2.9 | 113 | 200 | 62.4 ± 1.9 | 141 | 248 | 88.5 ± 9.6 | 99 | 175 | 8.8 ± 2 | 308 ± 7.2 | 29 | 50 | 184 ± 3.2 | 48 | 84 | 
2 | O=C1C(O)=C([C@H]2CC[C@H](c3ccc(Cl)cc3)CC2)C(=O)c2ccccc21 [AV, atovaquone] | 39.7 ± 2.4 | >1008 | >1008 | 706 ± 38.7 | >57 | >57 | 102 ± 14.1 | >393 | >393 | > 40 | 95 ± 65 | >421 | >421 | 13.4 ± 1.4 | >2985 | >2985 | did not show any inhibition
